Patent US6737383B1, “Herbicidal oxadiazolidines” (priority 1999, dated 2004)

Columns and labels:
[1] = system: blackgrass; assay: Test B pre/postemergence blackgrass; type: in vivo, Alopecurus myosuroides
In short: (§1)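 Herbicidal effect was estimated by eye on a ten-point control scale after plants spent twelve to sixteen days in a greenhouse following soil or foliar treatment. Foliar sprays targeted plants at one to four leaves; all doses were formulated in a non-phytotoxic solvent with surfactant.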

[2] = system: crabgrass; assay: Test B pre/postemergence crabgrass; type: in vivo, Digitaria sanguinalis
In short: as §1

[3] = system: rape; assay: Test B pre/postemergence rape; type: in vivo, Brassica napus
In short: as §1

[4] = system: velvetleaf; assay: Test B pre/postemergence velvetleaf; type: in vivo, Abutilon theophrasti
In short: as §1

[5] = system: soybean; assay: Test B pre/postemergence soybean; type: in vivo, Glycine max
In short: as §1

[6] = system: wild oat; assay: Test B pre/postemergence wild oat; type: in vivo, Avena fatua
In short: as §1

[7] = system: bedstraw; assay: Test B pre/postemergence bedstraw; type: in vivo, Galium aparine
In short: as §1

[8] = system: sugar beet; assay: Test B pre/postemergence sugar beet; type: in vivo, Beta vulgaris
In short: as §1

[9] = system: purple nutsedge; assay: Test B pre/postemergence purple nutsedge; type: in vivo, Cyperus rotundus; details: for Plant response rating, Nutsedge: Postemergence, scale of 0 to 10 where 0 is no effect and 10 is complete control
In short: as §1

[10] = system: corn; assay: Test B pre/postemergence corn; type: in vivo, Zea mays
In short: as §1

[11] = system: giant foxtail; assay: Test B pre/postemergence giant foxtail; type: in vivo, Setaria faberii
In short: as §1

[12] = system: surinam grass; assay: Test B pre/postemergence surinam grass; type: in vivo, Brachiaria decumbens; details: for Plant response rating, B. signalgrass: Postemergence
In short: as §1

[13] = system: pigweed; assay: Test B pre/postemergence pigweed; type: in vivo, Amaranthus retroflexus
In short: as §1

[14] = system: morningglory; assay: Test B pre/postemergence morningglory; type: in vivo, Ipomoea hederacea
In short: as §1

[15] = system: wheat; assay: Test B pre/postemergence wheat; type: in vivo, Triticum aestivum
In short: as §1

[16] = system: cocklebur; assay: Test B pre/postemergence cocklebur; type: in vivo, Xanthium strumarium
In short: as §1

[17] = Postemergence, Rate 62 g/ha, scale of 0 to 10, 0 is no effect, 10 is complete control
[18] = Postemergence, Rate 125 g/ha, scale 0 to 10, 0 is no effect, 10 is complete control
[19] = Postemergence, Rate 500 g/ha, scale of 0 to 10 where 0 is no effect and 10 is complete control
[20] = Preemergence, Rate 62 g/ha, scale 0 to 10 (0 no effect, 10 complete control)
[21] = Preemergence, Rate 125 g/ha, scale 0 to 10, 0 is no effect, 10 is complete control
[22] = Preemergence, Rate 500 g/ha, scale of 0 to 10 where 0 is no effect and 10 is complete control
[23] = Rate 250 g/ha, Postemergence, scale of 0 to 10 where 0 is no effect and 10 is complete control

SMILES: COCn1c(=O)on(C(=O)N(c2ccccc2)C(C)C)c1=O [Compound 562]
- Blackgrass plant response rating [1, 17]: 3
- Blackgrass plant response rating [1, 18]: 3
- Plant response rating, Blackgrass [1, 19]: 3
- Blackgrass plant response rating [1, 20]: 4
- Blackgrass plant response rating [1, 21]: 10
- Blackgrass plant response rating (0 to 10 scale) ([1]; Preemergence, Rate 250 g/ha): 10
- Blackgrass plant response rating [1, 22]: 10
- Plant response rating, Blackgrass [1, 23]: 3
- Crabgrass plant response rating [2, 17]: 7
- Crabgrass plant response rating [2, 18]: 5
- Plant response rating, Crabgrass [2, 19]: 10
- Crabgrass plant response rating [2, 20]: 8
- Crabgrass plant response rating [2, 21]: 8
- Crabgrass plant response rating (0 to 10 scale) ([2]; Preemergence, Rate 250 g/ha): 10
- Crabgrass plant response rating [2, 22]: 10
- Plant response rating, Crabgrass [2, 23]: 7
- Rape plant response rating [3, 17]: 0
- Rape plant response rating [3, 18]: 0
- Plant response rating, Rape [3, 19]: 7
- Rape plant response rating [3, 20]: 0
- Rape plant response rating [3, 21]: 6
- Rape plant response rating (0 to 10 scale) ([3]; Preemergence, Rate 250 g/ha): 10
- Rape plant response rating [3, 22]: 10
- Plant response rating, Rape [3, 23]: 0
- Velvetleaf plant response rating [4, 17]: 3
- Plant response rating, Velvetleaf [4, 19]: 6
- Velvetleaf plant response rating [4, 20]: 0
- Velvetleaf plant response rating [4, 21]: 0
- Velvetleaf plant response rating (0 to 10 scale) ([4]; Preemergence, Rate 250 g/ha): 0
- Velvetleaf plant response rating [4, 22]: 7
- Plant response rating, Velvetleaf [4, 23]: 6
- Soybean plant response rating [5, 17]: 3
- Plant response rating, Soybean [5, 19]: 5
- Soybean plant response rating [5, 20]: 0
- Soybean plant response rating [5, 21]: 0
- Soybean plant response rating (0 to 10 scale) ([5]; Preemergence, Rate 250 g/ha): 9
- Soybean plant response rating [5, 22]: 9
- Plant response rating, Soybean [5, 23]: 4
- Wild oats plant response rating [6, 17]: 0
- Plant response rating, Wild oats [6, 19]: 4
- Wild oats plant response rating [6, 20]: 4
- Wild oats plant response rating [6, 21]: 9
- Wild oats plant response rating (0 to 10 scale) ([6]; Preemergence, Rate 250 g/ha): 10
- Wild oats plant response rating [6, 22]: 10
- Plant response rating, Wild oats [6, 23]: 0
- Bedstraw plant response rating [7, 20]: 0
- Bedstraw plant response rating [7, 21]: 0
- Bedstraw plant response rating (0 to 10 scale) ([7]; Preemergence, Rate 250 g/ha): 0
- Bedstraw plant response rating [7, 22]: 0
- Plant response rating, Bedstraw [7, 23]: 4
- Sugarbeets plant response rating [8, 17]: 3
- Plant response rating, Sugarbeets [8, 19]: 5
- Sugarbeets plant response rating [8, 20]: 6
- Sugarbeets plant response rating [8, 21]: 8
- Sugarbeets plant response rating (0 to 10 scale) ([8]; Preemergence, Rate 250 g/ha): 9
- Sugarbeets plant response rating [8, 22]: 9
- Plant response rating, Sugarbeets [8, 23]: 3
- Plant response rating, Nutsedge ([9]; Rate 500 g/ha): 5
- Nutsedge plant response rating [9, 20]: 0
- Nutsedge plant response rating [9, 21]: 0
- Nutsedge plant response rating (0 to 10 scale) ([9]; Preemergence, Rate 250 g/ha): 0
- Plant response rating, Nutsedge ([9]; Rate 250 g/ha): 5
- Corn plant response rating [10, 17]: 0
- Corn plant response rating [10, 18]: 3
- Plant response rating, Corn [10, 19]: 7
- Corn plant response rating [10, 20]: 0
- Corn plant response rating [10, 21]: 3
- Corn plant response rating (0 to 10 scale) ([10]; Preemergence, Rate 250 g/ha): 9
- Corn plant response rating [10, 22]: 9
- Plant response rating, Corn [10, 23]: 7
- Giant foxtail plant response rating [11, 17]: 7
- Giant foxtail plant response rating [11, 18]: 7
- Plant response rating, Giant foxtail [11, 19]: 8
- Giant foxtail plant response rating [11, 20]: 4
- Giant foxtail plant response rating [11, 21]: 9
- Giant foxtail plant response rating (0 to 10 scale) ([11]; Preemergence, Rate 250 g/ha): 8
- Giant foxtail plant response rating [11, 22]: 8
- Plant response rating, Giant foxtail [11, 23]: 8
- Plant response rating, B. signalgrass ([12]; Rate 500 g/ha, scale of 0 to 10 where 0 is no effect and 10 is complete control): 7
- B. signalgrass plant response rating [12, 20]: 5
- B. signalgrass plant response rating [12, 21]: 8
- B. signalgrass plant response rating (0 to 10 scale, 0 is no effect, 10 is complete control) ([12]; Preemergence, Rate 250 g/ha): 10
- B. signalgrass plant response rating [12, 22]: 10
- Plant response rating, B. signalgrass ([12]; Rate 250 g/ha, scale of 0 to 10 where 0 is no effect and 10 is complete control): 5
- Redroot pigweed plant response rating [13, 17]: 9
- Plant response rating, Redroot pigweed [13, 19]: 9
- Redroot pigweed plant response rating [13, 20]: 10
- Redroot pigweed plant response rating [13, 21]: 10
- Redroot pigweed plant response rating (0 to 10 scale) ([13]; Preemergence, Rate 250 g/ha): 10
- Redroot pigweed plant response rating [13, 22]: 10
- Plant response rating, Redroot pigweed [13, 23]: 9
- Morningglory plant response rating [14, 17]: 4
- Morningglory plant response rating [14, 18]: 4
- Plant response rating, Morningglory [14, 19]: 10
- Morningglory plant response rating [14, 20]: 0
- Morningglory plant response rating [14, 21]: 0
- Morningglory plant response rating (0 to 10 scale) ([14]; Preemergence, Rate 250 g/ha): 0
- Morningglory plant response rating [14, 22]: 8
- Plant response rating, Morningglory [14, 23]: 10
- Wheat plant response rating [15, 17]: 0
- Plant response rating, Wheat [15, 19]: 5
- Wheat plant response rating [15, 20]: 3
- Wheat plant response rating [15, 21]: 9
- Wheat plant response rating (0 to 10 scale) ([15]; Preemergence, Rate 250 g/ha): 9
- Wheat plant response rating [15, 22]: 9
- Plant response rating, Wheat [15, 23]: 7
- Cocklebur plant response rating [16, 17]: 2
- Cocklebur plant response rating [16, 18]: 2
- Plant response rating, Cocklebur [16, 19]: 2
- Cocklebur plant response rating [16, 20]: 0
- Cocklebur plant response rating [16, 21]: 0
- Cocklebur plant response rating (0 to 10 scale) ([16]; Preemergence, Rate 250 g/ha): 0
- Cocklebur plant response rating [16, 22]: 2
- Plant response rating, Cocklebur [16, 23]: 2
